Where “and” joins values, the source holds several entries; their conditions need not be identical. Identical values can stand only once. Like-named read-outs stand apart in the source and are kept apart here. Ends that are not written are not given here.
Key:
[1] = test system: C. albicans; settings: cited from earlier work
Excerpt: Antifungal activity of other phenolic acids, such as chlorogenic acid, has been reported against Candida spp. resistant to FLC, generating a death process similar to apoptosis.

[2] = test system: C. albicans SC5314; experiment: microbe, parasite or virus in culture; assay type: cell-based, Candida albicans; settings: n = 3; for MIC: CLSI M27-A4 modified, RPMI 1640, 37 °C, 48 h, MIC = 50% growth inhibition; for MFC: subculture on SDA 24 h 37 °C, MFC = eliminates 100% of growth
Protocol: (§1) For the determination of the MICs, the guidelines of the Clinical Laboratory Standards Institute (CLSI BMD-M27-A4) were used with some modifications. Serial dilutions were made, for peptides from 6.25 to 200 µg/mL and for extracts from 31.2 to 2000 µg/mL, with RPMI 1640 medium in a 96-well microdilution plate (100 µL), and then 100 µL of the adjusted inoculum (0.5–2.5 × 10^3 cells/mL) was added and incubated at 37 °C, and visual and spectrophotometric reading (595 nm) was performed at 48 h. Controls: growth control in RPMI or DMSO, control with a known antifungal: FLC, C. albicans SC5314 (1 µg/mL), C. albicans 256 (64 µg/mL), C. auris 435 (8 µg/mL), and C. auris 537 (128 µg/mL), sterility controls correspond to RPMI medium and SS. The MIC was defined as the minimum concentration of peptide or extract that inhibited 50% of growth compared to the control. To determine the minimal fungicidal concentration (MFC), from the concentrations where no growth was observed, including the controls, a subculture was made on SDA and incubated for 24 h at 37 °C. The MFC was defined as the minimum concentration of peptide or extract that eliminated 100% of the growth compared to the control (n = 3).

[3] = test system: C. auris 435-PUJ-HUSI; experiment: Antifungal activity (MIC/MFC), broth microdilution; assay type: cell-based, Candida auris; settings: FLC-sensitive isolate, n = 3; for MIC: CLSI M27-A4 modified, RPMI 1640, 37 °C, 48 h, MIC = 50% growth inhibition; for MFC: subculture on SDA 24 h 37 °C, MFC = eliminates 100% of growth
Protocol: as §1

[4] = test system: C. auris 537-PUJ-HUSI; experiment: Antifungal activity (MIC/MFC), broth microdilution; assay type: cell-based, Candida auris; settings: FLC- and AmB-resistant isolate, n = 3
Protocol: as §1

[5] = test system: C. albicans 256-PUJ-HUSI; experiment: Antifungal activity (MIC/MFC), broth microdilution; assay type: cell-based, Candida albicans; settings: FLC-resistant isolate, n = 3
Protocol: as §1

[6] = reported against other C. albicans strains
[7] = reported against C. albicans strains
[8] = CLSI M27-A4 modified, RPMI 1640, 37 °C, 48 h, MIC = 50% growth inhibition
[9] = subculture on SDA 24 h 37 °C, MFC = eliminates 100% of growth

**Q.** For “FKCRRWQWRMKKLGA [bLF (or LFB) 17–30, short peptide derived from LfcinB, …]”, which MIC [1, 6] is on record?
**A.** 5 to 10 µM

**Q.** Which MIC [1, 6] does the source give for “GAPSITCVRRAF [Peptide 3, short peptide derived from LfcinB, …]” here?
**A.** 635 µM

**Q.** For “Lfcin B-18-42: short peptide derived from LfcinB (FKCRRWQWRMKKLGAPSITCVRRAF; ends and bridges not checked; cysteine pairing not given here; UniProt P24627 36-60, looked up, fragment)”, which MIC [1, 7] is on record?
**A.** 100 µg/mL

**Q.** Which MIC [1, 7] does the source give for “LfcinB: Bovine lactoferricin, AMP derived from bovine lactoferrin (FKCRRWQWRMKKLGAPSITCVRRAF; ends and bridges not checked; cysteine pairing not given here; UniProt P24627 36-60, looked up)” here?
**A.** 0.8 to 400 µg/mL

**Q.** With “RRWQWRMKK [Lfcin B-9, short peptide derived from LfcinB, …]” as the substance, how does the MIC [1, 7] read?
**A.** 25,000–32,000 μg/mL

**Q.** Which results are given for “RWQWHomoFQWR [[^5HomoF]-R-1-R, RWQWHomoFQWR, position 5 replaced by Homophenylalanine]”?
**A.** MIC [2]: 200 μg/mL and 134 μM; MFC [2]: > 200 μg/mL and > 134 μM; MIC [3]: > 200 μg/mL and > 134 μM; MFC [3]: > 200 μg/mL and > 134 μM; MIC [4, 8]: > 200 μg/mL and > 134 μM; MFC [4, 9]: > 200 μg/mL and > 134 μM; MIC [5, 8]: 200 μg/mL and 134 μM; MFC [5, 9]: > 200 μg/mL and > 134 μM

**Q.** Which MIC [2] does the source give for “RWQWNalQWR [[^5Nal]-R-1-R, RWQWNalQWR, position 5 replaced by Naphthylalanine]” here?
**A.** > 200 μg/mL and > 131 μM

**Q.** And the MFC [2]?
**A.** > 200 μg/mL and > 131 μM

**Q.** What about the MIC [3] of the same substance?
**A.** > 200 μg/mL and > 131 μM

**Q.** And the MFC [3]?
**A.** > 200 μg/mL and > 131 μM

**Q.** Which MIC [1, 6] does the source give for “RWQWRM [Peptide 5, short peptide derived from LfcinB, RWQWRM]” here?
**A.** 500 µM
